Measured values from patent US20080175794A1, “Substituted Pyridazinyl- and Pyrimidinyl-Quinolin-4-Ylamine Analogues” (NEUROGEN CORPORATION, priority 2005, published 2008).

Each compound was assayed against T1, human capsaicin receptor (Homo sapiens, UniProt Q8NER1) (assay: Calcium mobilization assay, determination of antagonist activity (Example 6)). Details: Table III; assay provided in Example 6; cells expressing human capsaicin receptor, capsaicin at EC50.
T1 construct: expressed in transfected cells
Type: cell-based
Experimental: A cDNA encoding full length human capsaicin receptor (SEQ ID NO:1, 2 or 3 of U.S. Pat. No. 6,482,611) is subcloned in the plasmid pBK-CMV (Stratagene, La Jolla, Calif.) for recombinant expression in mammalian cells.
Human embryonic kidney (HEK293) cells are transfected with the pBK-CMV expression construct encoding the full length human capsaicin receptor using standard methods. The transfected cells are selected over two weeks in media containing G418 (400 μg/ml) to obtain a pool of stably transfected cells. Independent clones are isolated from this pool by limiting dilution to obtain clonal stable cell lines for use in subsequent experiments.
Cells transfected with expression plasmids (as described in Example 4) and thereby expressing human capsaicin receptor are seeded and grown to 70-90% confluency in FALCON black-walled, clear-bottomed 96-well plates (#3904, BECTON-DICKINSON, Franklin Lakes, N.J.). The culture medium is emptied from the 96 well plates and FLUO-3 AM calcium sensitive dye (Molecular Probes, Eugene, Oreg.) is added to each well (dye solution: 1 mg FLUO-3 AM, 440 μL DMSO and 440 μl 20% pluronic acid in DMSO, diluted 1:250 in Krebs-Ringer HEPES (KRH) buffer (25 mM HEPES, […], 0.96 mM NaH2PO4, 1 mM MgSO4, 2 mM CaCl2, 5 mM glucose, 1 mM probenecid, pH 7.4), 50 μl diluted solution per well). Plates are covered with aluminum foil and incubated at 37° C. for 1-2 hours in an environment containing 5% CO2. After the incubation, the dye is emptied from the plates, and the cells are washed once with KRH buffer, and resuspended in KRH buffer.
To measure the ability of a test compound to agonize or antagonize a calcium mobilization response in cells expressing capsaicin receptors to capsaicin or other vanilloid agonist, the EC50 of the agonist capsaicin is first determined. An additional 20 μl of KRH buffer and 1 μl DMSO is added to each well of cells, prepared as described above. 100 μl capsaicin in KRH buffer is automatically transferred by the FLIPR instrument to each well. Capsaicin-induced calcium mobilization is monitored using either FLUOROSKAN ASCENT (Labsystems; Franklin, Mass.) or FLIPR (fluorometric imaging plate reader system; Molecular Devices, Sunnyvale, Calif.) instruments. Data obtained between 30 and 60 seconds after agonist application are used to generate an 8-point concentration response curve, with final capsaicin concentrations of 1 nM to 3 μM. KALEIDAGRAPH software (Synergy Software, Reading, Pa.) is used to fit the data to the equation: […]
Test compounds are dissolved in DMSO, diluted in 20 μl KRH buffer so that the final concentration of test compounds in the assay well is between […] and 5 μM, and added to cells prepared as described above. The 96 well plates containing prepared cells and test compounds are incubated in the dark at room temperature for 0.5 to 6 hours. It is important that the incubation not continue beyond 6 hours. Just prior to determining the fluorescence response, 100 μl capsaicin in KRH buffer at twice the EC50 concentration determined as described above is automatically added by the FLIPR instrument to each well of the 96 well plate for a final sample volume of 200 μl and a final capsaicin concentration equal to the EC50. The final concentration of test compounds in the assay wells is between 1 μM and 5 μM. […] The concentration of antagonist required to provide a 50% decrease, relative to the response observed in the presence of capsaicin and without antagonist, is the IC50 for the antagonist, and is preferably below 1 micromolar, 100 nanomolar, 10 nanomolar or 1 nanomolar.

T1 sequence (Q8NER1 whole entry): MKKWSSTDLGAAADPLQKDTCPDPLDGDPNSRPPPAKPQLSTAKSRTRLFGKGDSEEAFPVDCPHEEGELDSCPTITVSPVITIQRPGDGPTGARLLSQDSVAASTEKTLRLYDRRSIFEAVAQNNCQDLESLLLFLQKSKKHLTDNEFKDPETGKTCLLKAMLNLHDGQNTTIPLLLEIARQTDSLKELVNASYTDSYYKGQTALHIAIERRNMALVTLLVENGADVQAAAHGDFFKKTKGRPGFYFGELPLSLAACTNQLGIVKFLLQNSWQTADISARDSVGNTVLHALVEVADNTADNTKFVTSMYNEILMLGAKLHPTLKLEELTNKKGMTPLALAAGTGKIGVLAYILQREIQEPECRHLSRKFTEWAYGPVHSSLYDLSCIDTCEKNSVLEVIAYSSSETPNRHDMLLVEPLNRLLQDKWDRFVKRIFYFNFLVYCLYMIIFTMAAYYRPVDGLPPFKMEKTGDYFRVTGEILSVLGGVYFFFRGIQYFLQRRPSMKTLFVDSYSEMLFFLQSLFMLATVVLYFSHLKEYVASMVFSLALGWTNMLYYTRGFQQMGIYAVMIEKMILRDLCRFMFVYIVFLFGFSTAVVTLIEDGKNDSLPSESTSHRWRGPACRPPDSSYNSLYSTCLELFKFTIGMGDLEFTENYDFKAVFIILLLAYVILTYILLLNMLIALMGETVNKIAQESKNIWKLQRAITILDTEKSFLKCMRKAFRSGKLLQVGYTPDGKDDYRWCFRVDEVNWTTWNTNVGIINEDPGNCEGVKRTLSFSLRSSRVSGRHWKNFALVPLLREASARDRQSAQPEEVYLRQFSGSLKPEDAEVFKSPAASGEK

Row | SMILES | IC50 [nM]
1 | OCCCCCNc1cc(C(F)(F)F)c(-c2cnc3c(Nc4ccc(C(F)(F)F)cn4)ccnc3n2)nn1 [Compound 115, 5-{[5-(trifluoromethyl)-6-(8-{[5-(trifluoromethyl)pyridin-2-yl]amino}pyrido[2,3-b]pyrazin-3-yl)pyridazin-3-yl]amino}pentan-1-ol] | < 1000
2 | CCN(CC)CCCNc1cc(C(F)(F)F)c(-c2cnc3c(Nc4ccc(C(F)(F)F)cn4)ccnc3n2)nn1 [Compound 73, N,N-diethyl-N′-[5-(trifluoromethyl)-6-(8-{[5-(trifluoromethyl)pyridin-2-yl]amino}pyrido[2,3-b]pyrazin-3-yl)pyridazin-3-yl]propane-1,3-diamine] | < 1000
3 | CN(C)C1CCN(c2cc(C(F)(F)F)c(-c3cnc4c(Nc5ccc(C(F)(F)F)cn5)ccnc4n3)nn2)CC1 [Compound 96, 3-{6-[4-(dimethylamino)piperidin-1-yl]-4-(trifluoromethyl)pyridazin-3-yl}-N-[5-(trifluoromethyl)pyridin-2-yl]pyrido[2,3-b]pyrazin-8-amine] | < 1000
4 | CCOc1cc(C(F)(F)F)c(-c2cnc3c(Nc4ccc(C(F)(F)F)cn4)ccnc3n2)nn1 [Compound 50, 3-[6-ethoxy-4-(trifluoromethyl)pyridazin-3-yl]-N-[5-(trifluoromethyl)pyridin-2-yl]pyrido[2,3-b]pyrazin-8-amine] | < 1000
5 | CN(CC(=O)O)c1cc(C(F)(F)F)c(-c2cnc3c(Nc4ccc(C(F)(F)F)cn4)ccnc3n2)nn1 [Compound 56, N-methyl-N-[5-(trifluoromethyl)-6-(8-{[5-(trifluoromethyl)pyridin-2-yl]amino}pyrido[2,3-b]pyrazin-3-yl)pyridazin-3-yl]glycine] | < 1000
6 | NC(=O)c1cc(C(F)(F)F)c(-c2cnc3c(Nc4ccc(C(F)(F)F)cn4)ccnc3n2)nn1 [Compound 60, 5-(trifluoromethyl)-6-(8-{[5-(trifluoromethyl)pyridin-2-yl]amino}pyrido[2,3-b]pyrazin-3-yl)pyridazine-3-carboxamide] | < 1000
7 | CCCN(CCC)CCNc1cc(C(F)(F)F)c(-c2cnc3c(Nc4ccc(C(F)(F)F)cn4)ccnc3n2)nn1 [Compound 83, N,N-dipropyl-N′-[5-(trifluoromethyl)-6-(8-{[5-(trifluoromethyl)pyridin-2-yl]amino}pyrido[2,3-b]pyrazin-3-yl)pyridazin-3-yl]ethane-1,2-diamine] | < 1000
8 | CC(C)CCNc1cc(C(F)(F)F)c(-c2cnc3c(Nc4ccc(C(F)(F)F)cn4)ccnc3n2)nn1 [Compound 106, 3-{6-[(3-methylbutyl)amino]-4-(trifluoromethyl)pyridazin-3-yl}-N-[5-(trifluoromethyl)pyridin-2-yl]pyrido[2,3-b]pyrazin-8-amine] | < 1000
9 | CN(C)C(=O)CN(C)c1cc(C(F)(F)F)c(-c2cnc3c(Nc4ccc(C(F)(F)F)cn4)ccnc3n2)nn1 [Compound 59, N,N,N2-trimethyl-N2-[5-(trifluoromethyl)-6-(8-{[5-(trifluoromethyl)pyridin-2-yl]amino}pyrido[2,3-b]pyrazin-3-yl)pyridazin-3-yl]glycinamide] | < 1000
10 | C=CCN1CCN(c2cc(C(F)(F)F)c(-c3cnc4c(Nc5ccc(C(F)(F)F)cn5)ccnc4n3)nn2)CC1 [Compound 86, 3-[6-(4-allylpiperazin-1-yl)-4-(trifluoromethyl)pyridazin-3-yl]-N-[5-(trifluoromethyl)pyridin-2-yl]pyrido[2,3-b]pyrazin-8-amine] | < 1000
11 | N#Cc1cc(C(F)(F)F)c(-c2cnc3c(Nc4ccc(C(F)(F)F)cn4)ccnc3n2)nn1 [Compound 55, 5-(trifluoromethyl)-6-(8-{[5-(trifluoromethyl)pyridin-2-yl]amino}pyrido[2,3-b]pyrazin-3-yl)pyridazine-3-carbonitrile] | < 1000

Results, then the compound that gave them:

Row | IC50 [nM] | SMILES
12 | < 1000 | COCC(C)Nc1cc(C(F)(F)F)c(-c2cnc3c(Nc4ccc(C(F)(F)F)cn4)ccnc3n2)nn1 (stereo not shown) [Compound 165, 3-{6-[(2-methoxy-1-methylethyl)amino]-4-(trifluoromethyl)pyridazin-3-yl}-N-[5-(trifluoromethyl)pyridin-2-yl]pyrido[2,3-b]pyrazin-8-amine]
13 | < 1000 | CCCCCNc1cc(C(F)(F)F)c(-c2cnc3c(Nc4ccc(C(F)(F)F)cn4)ccnc3n2)nn1 [Compound 153, 3-[6-(pentylamino)-4-(trifluoromethyl)pyridazin-3-yl]-N-[5-(trifluoromethyl)pyridin-2-yl]pyrido[2,3-b]pyrazin-8-amine]
14 | < 1000 | C=CCNc1cc(C(F)(F)F)c(-c2cnc3c(Nc4ccc(C(F)(F)F)cn4)ccnc3n2)nn1 [Compound 152, 3-[6-(allylamino)-4-(trifluoromethyl)pyridazin-3-yl]-N-[5-(trifluoromethyl)pyridin-2-yl]pyrido[2,3-b]pyrazin-8-amine]
15 | < 1000 | CCN(CC)c1cc(C(F)(F)F)c(-c2cnc3c(Nc4ccc(C(F)(F)F)cn4)ccnc3n2)nn1 [Compound 126, 3-[6-(diethylamino)-4-(trifluoromethyl)pyridazin-3-yl]-N-[5-(trifluoromethyl)pyridin-2-yl]pyrido[2,3-b]pyrazin-8-amine]
16 | < 1000 | CC(C)(C)Nc1cc(C(F)(F)F)c(-c2cnc3c(Nc4ccc(C(F)(F)F)cn4)ccnc3n2)nn1 [Compound 161, 3-[6-(tert-butylamino)-4-(trifluoromethyl)pyridazin-3-yl]-N-[5-(trifluoromethyl)pyridin-2-yl]pyrido[2,3-b]pyrazin-8-amine]
17 | < 1000 | CN(CCCO)c1cc(C(F)(F)F)c(-c2cnc3c(Nc4ccc(C(F)(F)F)cn4)ccnc3n2)nn1 [Compound 137, 3-{methyl[5-(trifluoromethyl)-6-(8-{[5-(trifluoromethyl)pyridin-2-yl]amino}pyrido[2,3-b]pyrazin-3-yl)pyridazin-3-yl]amino}propan-1-ol]
18 | < 1000 | CCCC(C)Nc1cc(C(F)(F)F)c(-c2cnc3c(Nc4ccc(C(F)(F)F)cn4)ccnc3n2)nn1 (stereo not shown) [Compound 158, 3-{6-[(1-methylbutyl)amino]-4-(trifluoromethyl)pyridazin-3-yl}-N-[5-(trifluoromethyl)pyridin-2-yl]pyrido[2,3-b]pyrazin-8-amine]
19 | < 1000 | CC1CCN1c1cc(C(F)(F)F)c(-c2cnc3c(Nc4ccc(C(F)(F)F)cn4)ccnc3n2)nn1 (stereo not shown) [Compound 189, 3-[6-(2-methylazetidin-1-yl)-4-(trifluoromethyl)pyridazin-3-yl]-N-[5-(trifluoromethyl)pyridin-2-yl]pyrido[2,3-b]pyrazin-8-amine]
20 | < 1000 | OCCCCNc1cc(C(F)(F)F)c(-c2cnc3c(Nc4ccc(C(F)(F)F)cn4)ccnc3n2)nn1 [Compound 172, 4-{[5-(trifluoromethyl)-6-(8-{[5-(trifluoromethyl)pyridin-2-yl]amino}pyrido[2,3-b]pyrazin-3-yl)pyridazin-3-yl]amino}butan-1-ol]
21 | < 1000 | CN(C)CCN(C)c1cc(C(F)(F)F)c(-c2cnc3c(Nc4ccc(C(F)(F)F)cn4)ccnc3n2)nn1 [Compound 150, N,N,N′-trimethyl-N′-[5-(trifluoromethyl)-6-(8-{[5-(trifluoromethyl)pyridin-2-yl]amino}pyrido[2,3-b]pyrazin-3-yl)pyridazin-3-yl]ethane-1,2-diamine]

Same assay, conditions: assay provided in Example 6; cells expressing human capsaicin receptor, capsaicin at EC50

Row | IC50 [nM] | SMILES
22 | < 1000 | FC(F)(F)c1ccc(Nc2ccnc3nc(-c4nnccc4C(F)(F)F)cnc23)nc1 [Compound 2, N-[5-(Trifluoromethyl)pyridin-2-yl]-3-[4-(trifluoromethyl)pyridazin-3-yl]pyrido[2,3-b]pyrazin-8-amine]
